# From patent US20150105252A1, “SUBSTITUTED PYRAZOLES AS HERBICIDES” (E I DU PONT DE NEMOURS AND COMPANY, priority 2013, published 2015)
# Assays:
# [1] = tested on: southern sandbur; test: Test F postemergence; assay type: in vivo, Cenchrus echinatus; details: scale 0 to 100
# Text: (§1) Seeds of plant species selected from corn (Zea mays), soybean (Glycine max), velvetleaf (Abutilon theophrasti), lambsquarters (Chenopodium album), wild poinsettia (Euphorbia heterophylla), pigweed, palmer (palmer pigweed, Amaranthus palmeri), common waterhemp (Amaranthus rudis), surinam grass (Brachiaria decumbens), large crabgrass (Digitaria sanguinalis), crabgrass, Brazil (Brazilian crabgrass, Digitaria horizontalis), fall panicum (Panicum dichotomiflorum), giant foxtail (Setaria faberii), green foxtail (Setaria viridis), goosegrass (Eleusine indica), johnsongrass (Sorghum halepense), common ragweed (Ambrosia elation), barnyardgrass (Echinochloa crus-galli), southern sandbur (Cenchrus echinatus), arrowleaf sida (Sida rhombifolia), Italian ryegrass (Lolium multiflorum), dayflower, VA (Virginia (VA) dayflower, Commelina virginica), field bindweed (Convolvulus arvensis), cocklebur (common cocklebur, Xanthium strumarium), morningglory (Ipomoea coccinea), nightshade (eastern black nightshade, Solanum ptycanthum), kochia (Kochia scoparia), yellow nutsedge (Cyperus esculentus), and hairy beggarticks (Bidens pilosa), were planted into a silt loam soil and treated preemergence with test chemicals formulated in a non-phytotoxic solvent mixture which included a surfactant.
# (§2) At the same time, plants from these crop and weed species and also horseweed (Canada horseweed, Conyza canadensis), smartweed (ladysthumb smartweed, Polygonum persicaria), waterhemp_RES1, (ALS & Triazine resistant common waterhemp, Amaranthus rudis), and waterhemp_RES2, (ALS & HPPD resistant common waterhemp, Amaranthus rudis) were treated with postemergence applications of test chemicals formulated in the same manner. Plants ranged in height from 2 to 18 cm for postemergence treatments (1- to 4-leaf stage). Treated plants and controls were maintained in a greenhouse for 14 to 21 days, after which time all species were compared to controls and visually evaluated. Plant response ratings, summarized in Table F, are based on a scale of 0 to 100 where 0 is no effect and 100 is complete control. A dash (-) response means no test result.
# [2] = tested on: foxtail, green; test: Test E preemergence; assay type: in vivo, Setaria viridis; details: 21 days, scale 0 to 100
# Text: (§3) Seeds of plant species selected from bermudagrass (Cynodon dactylon), Surinam grass (Brachiaria decumbens), crabgrass, large (large crabgrass, Digitaria sanguinalis), crabgrass, naked (naked crabgrass, Digitaria nuda), foxtail, green (green foxtail, Setaria viridis), johnsongrass (Sorghum halepense), kochia (Kochia scoparia), morningglory (pitted morningglory, Ipomoea lacunosa), nutsedge, purple (purple nutsedge, Cyperus rotundus), ragweed (common ragweed, Ambrosia elation), mustard, black (black mustard, Brassica nigra), guineagrass (Panicum maximum), dallisgrass (Paspalum dilatatum), barnyardgrass (Echinochloa crus-galli), sandbur (southern sandbur, Cenchrus echinatus), sowthistle (common sowthistle, Sonchus oleraceous), ryegrass, Italian (Italian ryegrass, Lolium multiflorum), signalgrass (broadleaf signalgrass, Brachiaria platyphylla), dayflower, VA (Virginia (VA) dayflower, Commelina virginica), bluegrass (annual bluegrass, Poa annua), quackgrass (Elytrigia repens), mallow (common mallow, Malva sylvestris), buckwheat, wild (wild buckwheat, Polygonum convolvulus), leafy spurge (Euphorbia esula), common chickweed (Stellaria media), wild poinsettia (Euphorbia heterophylla), pigweed, palmer (palmer pigweed, Amaranthus palmeri), and pigweed (redroot pigweed, Amaranthus retroflexus) were planted into a blend of loam soil and sand and treated preemergence with test chemicals formulated in a non-phytotoxic solvent mixture which included a surfactant.
# (§4) Treated plants and controls were maintained in a greenhouse for 21 days, after which time all species were compared to controls and visually evaluated. Plant response ratings, summarized in Table E, are based on a scale of 0 to 100 where 0 is no effect and 100 is complete control. A dash (-) response means no test result.
# [3] = tested on: corn; test: Test F postemergence; assay type: in vivo, Zea mays; details: scale 0 to 100
# Text: as §1, §2
# [4] = tested on: barnyardgrass; test: Test F postemergence; assay type: in vivo, Echinochloa crus-galli; details: scale 0 to 100
# Text: as §1, §2
# [5] = tested on: dayflower, VA; test: Test F postemergence; assay type: in vivo, Commelina virginica; details: scale 0 to 100
# Text: as §1, §2
# [6] = tested on: sandbur; test: Test E preemergence; assay type: in vivo, Cenchrus echinatus; details: 21 days, scale 0 to 100
# Text: as §3, §4
# [7] = tested on: nutsedge, purple; test: Test E preemergence; assay type: in vivo, Cyperus rotundus; details: 21 days, scale 0 to 100
# Text: as §3, §4
# [8] = tested on: pigweed, palmer; test: Test E preemergence; assay type: in vivo, Amaranthus palmeri; details: 21 days, scale 0 to 100
# Text: as §3, §4
# [9] = tested on: smartweed; test: Test F postemergence; assay type: in vivo, Polygonum persicaria; details: 500 g ai/ha, scale 0 to 100
# Text: as §1, §2
# [10] = tested on: sowthistle; test: Test E preemergence; assay type: in vivo, Sonchus oleraceous; details: 21 days, scale 0 to 100
# Text: as §3, §4
# [11] = tested on: wild poinsettia; test: Test E preemergence; assay type: in vivo, Euphorbia heterophylla; details: 21 days, scale 0 to 100
# Text: as §3, §4
smiles,measurement,setting,value
"CCc1cc(C(=O)NCC(F)(F)F)nn1Cc1ccnc(C(F)(F)F)c1 [Compound 78, 5-ethyl-N-(2,2,2-trifluoroethyl)-1-[[(2-trifluoromethyl)-4-pyridinyl]methyl]-1H-pyrazole-3-carboxamide]","Plant response rating, Southern Sandbur","[1]; Postemergence, 31 g ai/ha",0
same,"Plant response rating, Southern Sandbur","[1]; Postemergence, 125 g ai/ha",30
same,"Plant response rating, Southern Sandbur","[1]; Postemergence, 250 g ai/ha",80
same,"Plant response rating, Southern Sandbur","[1]; postemergence, 62 g ai/ha",10
same,"Plant response rating, Southern Sandbur","[1]; postemergence, 500 g ai/ha",90
same,"Plant response rating, Foxtail, Green",[2]; 16 g ai/ha,50
same,"Plant response rating, Foxtail, Green",[2]; 31 g ai/ha,100
same,"Plant response rating, Foxtail, Green",[2]; 62 g ai/ha,100
same,"Plant response rating, Foxtail, Green",[2]; 125 g ai/ha,100
same,"Plant response rating, Foxtail, Green",[2]; 250 g ai/ha,100
same,"Plant response rating, Corn","[3]; Postemergence, 31 g ai/ha",15
same,"Plant response rating, Corn","[3]; Postemergence, 125 g ai/ha",50
same,"Plant response rating, Corn","[3]; Postemergence, 250 g ai/ha",85
same,"Plant response rating, Corn","[3]; postemergence, 62 g ai/ha",20
same,"Plant response rating, Barnyardgrass","[4]; Postemergence, 31 g ai/ha",5
same,"Plant response rating, Barnyardgrass","[4]; Postemergence, 125 g ai/ha",40
same,"Plant response rating, Barnyardgrass","[4]; Postemergence, 250 g ai/ha",70
same,"Plant response rating, Barnyardgrass","[4]; postemergence, 62 g ai/ha",30
same,"Plant response rating, Barnyardgrass","[4]; postemergence, 500 g ai/ha",90
same,"Plant response rating, Dayflower, VA","[5]; Postemergence, 31 g ai/ha",20
same,"Plant response rating, Dayflower, VA","[5]; Postemergence, 125 g ai/ha",60
same,"Plant response rating, Dayflower, VA","[5]; Postemergence, 250 g ai/ha",90
same,"Plant response rating, Dayflower, VA","[5]; postemergence, 62 g ai/ha",50
same,"Plant response rating, Dayflower, VA","[5]; postemergence, 500 g ai/ha",98
same,"Plant response rating, Sandbur",[6]; 16 g ai/ha,40
same,"Plant response rating, Sandbur",[6]; 31 g ai/ha,50
same,"Plant response rating, Sandbur",[6]; 62 g ai/ha,90
same,"Plant response rating, Sandbur",[6]; 125 g ai/ha,95
same,"Plant response rating, Sandbur",[6]; 250 g ai/ha,100
same,"Plant response rating, Nutsedge, Purple",[7]; 16 g ai/ha,35
same,"Plant response rating, Nutsedge, Purple",[7]; 31 g ai/ha,75
same,"Plant response rating, Nutsedge, Purple",[7]; 62 g ai/ha,98
same,"Plant response rating, Nutsedge, Purple",[7]; 125 g ai/ha,100
same,"Plant response rating, Nutsedge, Purple",[7]; 250 g ai/ha,100
same,"Plant response rating, Pigweed, Palmer",[8]; 16 g ai/ha,40
same,"Plant response rating, Pigweed, Palmer",[8]; 31 g ai/ha,80
same,"Plant response rating, Pigweed, Palmer",[8]; 62 g ai/ha,100
same,"Plant response rating, Pigweed, Palmer",[8]; 125 g ai/ha,100
same,"Plant response rating, Pigweed, Palmer",[8]; 250 g ai/ha,100
same,"Plant response rating, Smartweed",[9],100
same,"Plant response rating, Sowthistle",[10]; 62 g ai/ha,100
same,"Plant response rating, Sowthistle",[10]; 125 g ai/ha,100
same,"Plant response rating, Sowthistle",[10]; 250 g ai/ha,100
CCOc1cc(C(=O)NCC(F)(F)F)nn1Cc1ccnc(C(F)(F)F)c1 [Compound 104],"Plant response rating, Southern Sandbur","[1]; Postemergence, 31 g ai/ha",10
same,"Plant response rating, Southern Sandbur","[1]; Postemergence, 125 g ai/ha",45
same,"Plant response rating, Southern Sandbur","[1]; Postemergence, 250 g ai/ha",90
same,"Plant response rating, Southern Sandbur","[1]; postemergence, 62 g ai/ha",30
same,"Plant response rating, Southern Sandbur","[1]; postemergence, 500 g ai/ha",90
same,"Plant response rating, Foxtail, Green",[2]; 16 g ai/ha,100
same,"Plant response rating, Foxtail, Green",[2]; 31 g ai/ha,100
same,"Plant response rating, Foxtail, Green",[2]; 62 g ai/ha,100
same,"Plant response rating, Foxtail, Green",[2]; 125 g ai/ha,100
same,"Plant response rating, Foxtail, Green",[2]; 250 g ai/ha,100
same,"Plant response rating, Corn","[3]; Postemergence, 31 g ai/ha",10
same,"Plant response rating, Corn","[3]; Postemergence, 125 g ai/ha",50
same,"Plant response rating, Corn","[3]; Postemergence, 250 g ai/ha",90
same,"Plant response rating, Corn","[3]; postemergence, 62 g ai/ha",25
same,"Plant response rating, Barnyardgrass","[4]; Postemergence, 31 g ai/ha",0
same,"Plant response rating, Barnyardgrass","[4]; Postemergence, 125 g ai/ha",30
same,"Plant response rating, Barnyardgrass","[4]; Postemergence, 250 g ai/ha",80
same,"Plant response rating, Barnyardgrass","[4]; postemergence, 62 g ai/ha",10
same,"Plant response rating, Barnyardgrass","[4]; postemergence, 500 g ai/ha",95
same,"Plant response rating, Dayflower, VA","[5]; Postemergence, 31 g ai/ha",35
same,"Plant response rating, Dayflower, VA","[5]; Postemergence, 125 g ai/ha",70
same,"Plant response rating, Dayflower, VA","[5]; Postemergence, 250 g ai/ha",90
same,"Plant response rating, Dayflower, VA","[5]; postemergence, 62 g ai/ha",55
same,"Plant response rating, Dayflower, VA","[5]; postemergence, 500 g ai/ha",95
same,"Plant response rating, Sandbur",[6]; 16 g ai/ha,70
same,"Plant response rating, Sandbur",[6]; 31 g ai/ha,90
same,"Plant response rating, Sandbur",[6]; 62 g ai/ha,100
same,"Plant response rating, Sandbur",[6]; 125 g ai/ha,98
same,"Plant response rating, Sandbur",[6]; 250 g ai/ha,100
same,"Plant response rating, Nutsedge, Purple",[7]; 16 g ai/ha,35
same,"Plant response rating, Nutsedge, Purple",[7]; 31 g ai/ha,80
same,"Plant response rating, Nutsedge, Purple",[7]; 62 g ai/ha,90
same,"Plant response rating, Nutsedge, Purple",[7]; 125 g ai/ha,98
same,"Plant response rating, Nutsedge, Purple",[7]; 250 g ai/ha,100
same,"Plant response rating, Smartweed",[9],98
same,"Plant response rating, Wild Poinsettia",[11]; 16 g ai/ha,95
same,"Plant response rating, Wild Poinsettia",[11]; 31 g ai/ha,100
same,"Plant response rating, Wild Poinsettia",[11]; 62 g ai/ha,100
same,"Plant response rating, Wild Poinsettia",[11]; 125 g ai/ha,100
same,"Plant response rating, Wild Poinsettia",[11]; 250 g ai/ha,100
